Test results as given in publication doi:10.1101/2020.02.10.942029v1 (biorxiv, 2020).

Target: human CatSper (CatSper channel, cation channel of sperm) (Homo sapiens, UniProt Q7RTX7+Q86XQ3+Q8NEC5+Q96P56)
Assay: whole-cell patch clamp of human sperm
Format: cell-based
Conditions: activator; 20 μM, NaDVF, pHi 7.3, room temperature

fold current enhancement at -80 mV: 1.48 ± 0.47 fold
Structure (SMILES): CCCCCCOC(=O)[C@]1(O)C[C@@H]2O[C@@]1(C)n1c3ccccc3c3c4c(c5c6ccccc6n2c5c31)C(=O)NC4 [KT 5720]
